Among the data in publication PMC8151892, “Partial Agonist Activity of Neonicotinoids on Rat Nicotinic Receptors: Consequences over Epinephrine Secretion and In Vivo Blood Pressure” (International Journal of Molecular Sciences, 2021) are EC50 values, retold here.

In the experiment the target is T1, α3β4 nicotinic acetylcholine receptor (α3 subunit) (Rattus norvegicus, UniProt P04757+P12392).
T1 construct: gene Chrna3; complete open reading frames of rat α3 and β4 subunits, RNA 1:1, Xenopus oocytes; with nAChR β4 subunit (Chrnb4)
Description: two-electrode voltage clamp in Xenopus oocytes (partial agonist). Type of experiment: cell-based. A general note: Two-electrode voltage clamp is typically applied to oocytes expressing channels or transporters.

T1 sequence (P04757 26-499): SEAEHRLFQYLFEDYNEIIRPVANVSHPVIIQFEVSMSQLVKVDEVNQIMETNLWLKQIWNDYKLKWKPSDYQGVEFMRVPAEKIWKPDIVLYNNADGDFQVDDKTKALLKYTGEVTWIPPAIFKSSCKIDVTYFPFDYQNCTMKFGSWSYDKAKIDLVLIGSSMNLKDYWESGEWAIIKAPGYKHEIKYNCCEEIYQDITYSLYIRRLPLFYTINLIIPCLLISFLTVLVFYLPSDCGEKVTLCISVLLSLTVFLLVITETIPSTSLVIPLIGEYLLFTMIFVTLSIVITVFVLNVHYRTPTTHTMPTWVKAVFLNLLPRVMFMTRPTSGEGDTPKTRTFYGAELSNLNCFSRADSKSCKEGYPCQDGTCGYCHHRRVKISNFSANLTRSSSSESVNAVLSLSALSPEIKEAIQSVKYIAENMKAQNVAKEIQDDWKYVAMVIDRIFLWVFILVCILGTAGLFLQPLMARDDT
T1 sequence (P12392 21-495): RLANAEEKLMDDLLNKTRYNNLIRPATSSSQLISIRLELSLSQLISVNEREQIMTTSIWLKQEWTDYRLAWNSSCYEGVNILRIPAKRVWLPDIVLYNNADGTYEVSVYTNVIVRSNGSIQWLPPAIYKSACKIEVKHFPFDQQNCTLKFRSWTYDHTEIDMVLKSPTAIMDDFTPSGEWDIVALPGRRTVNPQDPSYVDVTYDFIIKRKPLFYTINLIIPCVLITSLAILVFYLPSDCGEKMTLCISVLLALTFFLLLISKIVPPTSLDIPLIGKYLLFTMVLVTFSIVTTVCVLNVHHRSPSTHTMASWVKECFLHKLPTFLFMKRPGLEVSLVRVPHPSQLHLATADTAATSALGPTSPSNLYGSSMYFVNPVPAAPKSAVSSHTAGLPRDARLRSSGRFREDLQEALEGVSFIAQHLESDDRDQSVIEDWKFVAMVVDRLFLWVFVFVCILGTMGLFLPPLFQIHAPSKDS

For orientation: EC50 means the midpoint of the concentration-response curve. In turn, `CN/C(=N\[N+](=O)[O-])NCc1cnc(Cl)s1` [CLO, clothianidin] yielded an EC50 of 8.39 ± 0.77 mM.
